Patent US12643858B2 (Inipharm, Inc., priority 2020, dated 2026)

biological target: T1, HSD17B13 enzyme (Homo sapiens, UniProt Q7Z5P4); test: NADH detection assay (fluorescence based LTB3 assay) for HSD17B13 activity; assay type: biochemical; conditions: substrate 25 μM LTB3, 3 mM NAD+, 125 nM HSD17B13 enzyme, 1 hour at 26.5° C.
T1 construct: His; made in house; host or cells: E. coli
T1 sequence (Q7Z5P4 20-300): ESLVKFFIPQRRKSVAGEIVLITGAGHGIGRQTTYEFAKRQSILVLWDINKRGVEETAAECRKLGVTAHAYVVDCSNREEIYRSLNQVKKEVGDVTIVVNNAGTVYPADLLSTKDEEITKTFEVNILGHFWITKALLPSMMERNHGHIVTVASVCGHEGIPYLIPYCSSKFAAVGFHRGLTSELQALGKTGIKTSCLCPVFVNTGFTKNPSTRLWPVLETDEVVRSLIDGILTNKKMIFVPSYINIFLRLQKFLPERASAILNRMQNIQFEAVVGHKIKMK
Procedure: Example A: NADH Detection Assay for Evaluation of HSD17ß13 Activity and Identification of Inhibitors
The fluorescence based Leukotriene B3 (LTB3) assay monitors the fluorescence of NADH, which is generated from NAD+ during the dehydrogenation of the substrate LTB3. The reactions were performed in a 384-well plates (Greiner; #655076) in a 20 μl reaction volume containing the following reagents (final concentrations): 25 μM LTB3 (Cayman; #20109); 3 mM NAD+ (Sigma; #N0623); 125 nM HSD17B13 enzyme (in-house; E. coli expressed His-tagged, purified, soluble protein); […] potassium phosphate buffer, pH 7.4; and 1% DMSO. Reactions were initiated by co-addition of NAD+ and enzyme, and monitored for 1 hour at 26.5° C. Generation of NADH was measured as the fluorescence signal (Excitation at 340 nm and Emission at 445 nm) at 1 hour minus the baseline fluorescence at t=0. Fluorescence signals in the absence of LTB3 (negative control values), were subtracted from all values so that the results reflected substrate-dependent production of NADH. NADH standards were included to allow the conversion of relative fluorescence units into rates of enzyme activity. Enzyme activity in the presence of test compounds was expressed as a percentage of the uninhibited enzyme activity, and plotted versus inhibitor concentration. Non-linear regression was performed using a four-parameter logistic model and GraphPad Prism software (GraphPad Software, La Jolla, CA). Ten concentrations of inhibitor were tested (in the range of 30 μM-2.5 nM), and two independent assessments were performed at each concentration.

`Oc1cc(Oc2cccc(-c3cccnc3)n2)ccc1F` [Example 1, 5-([2,3′-bipyridin]-6-yloxy)-2-fluorophenol] and `Oc1cc(Oc2cccc(-c3cccs3)n2)ccc1F` [Example 8, 2-fluoro-5-((6-(thiophen-2-yl)pyridin-2-yl)oxy) phenol] cannot be ordered by IC50: at most 5 µM for the first, 5 to 10 µM for the second.

`Oc1cccc(-c2cccc(Oc3cccnc3)n2)c1F` [Example 2, 2-fluoro-3-(6-(pyridin-3-yloxy)pyridin-2-yl) phenol] and `Oc1cccc(-c2cccc(Oc3ccc4cn[nH]c4c3)n2)c1F` [Example 4, 6-((6-(2-fluoro-3-methoxyphenyl)pyridin-2-yl)oxy)-1H-indazole and 3-(6-((1H-indazol-6-yl)oxy)pyridin-2-yl)-2 fluorophenol] cannot be ordered by IC50: 5 to 10 µM for the first, at most 5 µM for the second.

`Oc1cc(Oc2cccc(-c3ccc4cn[nH]c4c3)n2)ccc1F` [Example 3, 5-((6-(1H-indazol-6-yl)pyridin-2-yl)oxy)-2-fluorophenol] and `CNc1nc2cc(-c3cccc(Oc4ccc(F)c(O)c4)n3)ccc2s1` [Example 21] fall in the same range of IC50: 5 to 10 µM for the first, 5 to 10 µM for the second.

First: O=c1ccc(Oc2cccc(-c3cccc(O)c3F)n2)cn1C(F)F [Example 5, 1-(difluoromethyl)-5-((6-(2-fluoro-3-hydroxyphenyl)pyridin-2-yl)oxy)pyridin-2(1H)-one]
Second: Oc1cccc(-c2cccc(Oc3ccc(F)c(C(F)F)c3)n2)c1F [Example 13, 3-{6-[3-(difluoromethyl)-4-fluorophenoxy]pyridin-2-yl}-2-fluorophenol]
The IC50 of the first is higher: over 30 µM for the first, 5 to 10 µM for the second. The second is the more potent here.

`COc1cccc(-c2cccc(Oc3ccc4c(c3)NC(=O)C4)n2)c1F` [Example 6, 6-{[6-(2-fluoro-3-methoxyphenyl)pyridin-2-yl]oxy}-2,3-dihydro-1H-indol-2-one] and `O=C1Cc2ccc(Oc3cccc(-c4cccc(O)c4F)n3)cc2N1` [Example 7] cannot be ordered by IC50: over 30 µM for the first, over 30 µM for the second.

Compared with `Oc1cc(Oc2cccc(-c3cc4ccccc4s3)n2)ccc1F` [Example 9, 5-((6-(benzo[b]thiophen-2-yl)pyridin-2-yl)oxy)-2-fluorophenol], `Oc1cc(Oc2cccc(-c3ccc(OCc4ccccc4)cc3)n2)ccc1F` [Example 12, 5-((6-(4-(benzyloxy)phenyl)pyridin-2-yl)oxy)-2-fluorophenol] is lower in IC50: 10 to 30 µM for the first, at most 5 µM for the second. The second is the more potent here.

Compared with `COc1cc(Oc2nccc(-c3cccc(O)c3F)n2)ccc1F` [Example 10, 2-fluoro-3-[2-(4-fluoro-3-methoxyphenoxy)pyrimidin-4-yl]phenol], `Oc1cc(Oc2nccc(-c3cccc(O)c3F)n2)ccc1F` [Example 11, 2-fluoro-3-[2-(4-fluoro-3-hydroxyphenoxy)pyrimidin-4-yl]phenol] is lower in IC50: over 30 µM for the first, 10 to 30 µM for the second. The second is the more potent here.

`Oc1cccc(-c2cccc(Oc3ccc(F)c(OC(F)F)c3)n2)c1F` [Example 14, 3-{6-[3-(difluoromethoxy)-4-fluorophenoxy]pyridin-2-yl}-2-fluorophenol] and `COc1cc(Oc2ccnc(-c3cccc(O)c3F)n2)ccc1F` [Example 16, 2-fluoro-3-[4-(4-fluoro-3-methoxyphenoxy)pyrimidin-2-yl]phenol] cannot be ordered by IC50: over 30 µM for the first, over 30 µM for the second.

`Oc1cc(Sc2cccc(-c3cccc(O)c3F)n2)ccc1F` [Example 15, 2-fluoro-3-(6-((4-fluoro-3-hydroxyphenyl)thio)pyridin-2-yl) phenol] and `Oc1cc(Oc2ccnc(-c3cccc(O)c3F)n2)ccc1F` [Example 17, 2-fluoro-3-[4-(4-fluoro-3-hydroxyphenoxy)pyrimidin-2-yl]phenol] cannot be ordered by IC50: at most 5 µM for the first, at most 5 µM for the second.

`O=S(=O)(Nc1cccc(-c2cccc(Oc3ccc(F)c(O)c3)n2)c1)c1ccccc1` [Example 18, N-(3-(6-(4-fluoro-3-hydroxyphenoxy)pyridin-2-yl)phenyl) benzenesulfonamide] and `CN(C)S(=O)(=O)c1cccc(-c2cccc(Oc3ccc(F)c(O)c3)n2)c1` [Example 20, 3-(6-(4-fluoro-3-hydroxyphenoxy)pyridin-2-yl)-N,N-dimethylbenzenesulfonamide] cannot be ordered by IC50: at most 5 µM for the first, 5 to 10 µM for the second.
